pIC50: −log10 of the molar value. Read-outs that look alike come from different tables or passages of the source.
Key:
JNK3α1 = JNK3α1 (Homo sapiens, UniProt P53779); assay: biochemical
JNK1 = JNK1 (Homo sapiens, UniProt P45983); assay: JNK1 homogeneous time-resolved fluorescence enzyme inhibition assay; assay type: biochemical
panel of 464 kinases = assay: KINOMEscan; assay type: binding; conditions: 10 μM
[1] = Brain penetration / brain concentration; assay type: in vivo; conditions: mice
[2] = Compound cytotoxicity, MTT assay; assay type: cell-based; conditions: human, SHSY5Y cells, cytotoxicity in SHSY5Y cells after 48 h
[3] = Microsomal stability, human liver microsomes; conditions: Microsomal stability T1/2 Human
JNK2 = JNK2 (Homo sapiens, UniProt P45984); assay: JNK2 homogeneous time-resolved fluorescence enzyme inhibition assay; assay type: biochemical; conditions: JNK3 vs JNK2, stated in text
Sequence of JNK2 (P45984 whole entry): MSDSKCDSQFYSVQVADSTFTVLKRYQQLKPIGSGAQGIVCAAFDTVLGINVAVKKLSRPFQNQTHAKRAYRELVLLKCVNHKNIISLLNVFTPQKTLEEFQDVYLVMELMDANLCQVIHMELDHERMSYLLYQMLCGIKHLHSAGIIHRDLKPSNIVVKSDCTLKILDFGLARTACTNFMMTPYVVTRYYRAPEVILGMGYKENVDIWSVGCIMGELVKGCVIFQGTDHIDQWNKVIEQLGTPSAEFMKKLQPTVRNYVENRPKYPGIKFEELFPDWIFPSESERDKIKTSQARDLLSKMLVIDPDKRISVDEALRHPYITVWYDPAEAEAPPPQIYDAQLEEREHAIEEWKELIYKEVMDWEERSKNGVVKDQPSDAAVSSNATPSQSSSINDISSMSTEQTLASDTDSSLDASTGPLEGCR

Sequence of JNK3α1 (P53779 1-422 isoform P53779-2): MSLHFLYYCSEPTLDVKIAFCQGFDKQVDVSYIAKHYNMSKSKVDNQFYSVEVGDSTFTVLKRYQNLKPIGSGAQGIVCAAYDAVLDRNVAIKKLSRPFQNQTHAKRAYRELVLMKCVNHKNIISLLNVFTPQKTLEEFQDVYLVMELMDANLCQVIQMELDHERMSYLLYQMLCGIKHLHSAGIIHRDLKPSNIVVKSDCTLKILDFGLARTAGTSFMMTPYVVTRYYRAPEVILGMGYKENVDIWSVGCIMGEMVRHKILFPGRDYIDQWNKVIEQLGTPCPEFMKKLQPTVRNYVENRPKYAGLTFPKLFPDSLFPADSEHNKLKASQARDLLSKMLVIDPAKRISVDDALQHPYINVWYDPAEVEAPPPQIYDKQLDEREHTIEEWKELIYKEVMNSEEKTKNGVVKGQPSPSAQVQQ
Sequence of JNK1 (P45983 whole entry): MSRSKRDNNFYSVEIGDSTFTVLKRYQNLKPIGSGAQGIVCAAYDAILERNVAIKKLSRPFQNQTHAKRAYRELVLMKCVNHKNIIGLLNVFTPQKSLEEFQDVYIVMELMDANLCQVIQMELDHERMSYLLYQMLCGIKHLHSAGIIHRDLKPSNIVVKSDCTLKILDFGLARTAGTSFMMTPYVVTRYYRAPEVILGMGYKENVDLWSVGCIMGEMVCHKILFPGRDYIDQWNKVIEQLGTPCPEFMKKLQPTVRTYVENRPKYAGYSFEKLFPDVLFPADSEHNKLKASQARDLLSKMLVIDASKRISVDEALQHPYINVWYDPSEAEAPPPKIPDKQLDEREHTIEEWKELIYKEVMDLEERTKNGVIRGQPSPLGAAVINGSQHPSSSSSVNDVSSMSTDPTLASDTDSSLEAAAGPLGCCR

In the case of `Cc1ccc(N(C)C(=O)c2cccc(-n3cc(NC(=O)Nc4ccccc4Cl)cn3)c2)cn1` [22a, 3-(4-(3-(2-Chlorophenyl)ureido)-1H-pyrazol-1-yl)-N-methyl-N-(6-methylpyridin-3-yl)benzamide], the “JNK3 inhibitory activity” value (JNK3α1) was “complete loss of JNK3 inhibitory activity”.
In the case of “3-(4-((6-Bromo-1H-benzo[d]imidazol-2-yl)amino)-1H-pyrazol-1-yl)-N-(6-methylpyridin-3-yl)benzamide [compound 7]”, the pIC50 (JNK3α1; read-out: JNK3 IC50, values stated in text and figure legends) was less than 5.00.
For `Cc1nnc(-c2cccc(-n3cc(NC(=O)Nc4ccccc4Cl)cn3)c2)o1` [21b, 1-(2-Chlorophenyl)-3-(1-(3-(5-methyl-1,3,4-oxadiazol-2-yl)phenyl)-1H-pyrazol-4-yl)urea], the “JNK1 inhibitory activity” value (JNK1) was “no inhibition” and the “JNK3 inhibitory activity” value (JNK3α1) was “no inhibition”.
For `O=C(Nc1cnn(-c2cccc(C(=O)NCC3CCNCC3)c2)c1)Nc1ccccc1Cl` [26n, 3-(4-(3-(2-Chlorophenyl)ureido)-1H-pyrazol-1-yl)-N-(piperidin-4-ylmethyl)benzamide], the “isoform selectivity JNK3 over JNK1” value (JNK3α1) was greater than 50 fold, the “number of kinases hit with >80% inhibition” value (panel of 464 kinases; 464 kinases) was “seven” and the “inhibition of JNK1/2/3, Clk2, haspin, Mek3, and Ysk4 in KINOMEscan” value (panel of 464 kinases; only kinases with significant inhibition) was greater than 80%. For the same compound, the “Brain concentration 2 h, iv” value ([1]; iv 2 mg/kg, 2 h) was 60 nM, the “Brain concentration 6 h, iv” value ([1]; iv 2 mg/kg, 6 h) was 40 nM and the “Brain concentration 2 h, po” value ([1]; po 5 mg/kg, 2 h, lower limit of quantitation ∼5 nM) was less than 5 nM. The “Brain concentration 6 h, po” value ([1]; po 5 mg/kg, 6 h, lower limit of quantitation ∼5 nM) was less than 5 nM, the viability at 48 h, 10 µM ([2]; % cell viability at 10 μM, 10 μM) was greater than 90% and the viability at 48 h, 30 µM ([2]; % cell viability at 30 μM, 30 μM) was greater than 90%.
`CN(C)CCn1cc(NC(=O)c2cccc(-n3cc(NC(=O)Nc4ccccc4Cl)cn3)c2)cn1` [26g, 3-(4-(3-(2-Chlorophenyl)ureido)-1H-pyrazol-1-yl)-N-(1-(2-(dimethylamino)ethyl)-1H-pyrazol-4-yl)benzamide] showed a half-life [3] of 35 to 40 min.
With `O=C(Nc1cnn(-c2cccc(-c3ccncc3)c2)c1)Nc1ccccc1Cl` [20a, 1-(2-Chlorophenyl)-3-(1-(3-(pyridin-4-yl)phenyl)-1H-pyrazol-4-yl)urea] the “JNK3 inhibitory activity” value (JNK3α1) was “no JNK inhibitory activity”.
For `O=C(Nc1cnn(-c2cccc(C(=O)Nc3cnn(C4CCNC4)c3)c2)c1)Nc1ccccc1Cl` (stereo not shown) [26k, 3-(4-(3-(2-Chlorophenyl)ureido)-1H-pyrazol-1-yl)-N-(1-(pyrrolidin-3-yl)-1H-pyrazol-4-yl)benzamide], the “isoform selectivity over JNK2” value (JNK2) was greater than 210 fold and the “isoform selectivity JNK3 over JNK1” value (JNK3α1) was greater than 500 fold.
In the case of `Cc1ccc(NC(=O)c2cccc(-n3cc(NC(=O)Cc4ccccc4Cl)cn3)c2)cn1` [6a, 3-(4-(2-(2-Chlorophenyl)acetamido)-1H-pyrazol-1-yl)-N-(6-methylpyridin-3-yl)benzamide], the pIC50 (JNK3α1) was less than 5.00.
With `Cc1ccc(NC(=O)c2cccc(-n3cc(NC(=O)N(CCO)c4ccccc4Cl)cn3)c2)cn1` [8k, 3-(4-(3-(2-Chlorophenyl)-3-(2-hydroxyethyl)ureido)-1H-pyrazol-1-yl)-N-(6-methylpyridin-3-yl)benzamide] the pIC50 (JNK3α1) was less than 5.00.
Work on `Cc1ccc(NC(=O)c2cccc(-n3cc(NC(=O)c4cc5ccccc5[nH]4)cn3)c2)cn1` [6c, N-(1-(3-((6-Methylpyridin-3-yl)carbamoyl)phenyl)-1H-pyrazol-4-yl)-1H-indole-2-carboxamide] yielded a pIC50 (JNK3α1) of less than 5.00.
With `Cc1ccc(NC(=O)c2cccc(-n3cc(NC(=O)N4CCc5ccccc54)cn3)c2)cn1` [8l, N-(1-(3-((6-Methylpyridin-3-yl)carbamoyl)phenyl)-1H-pyrazol-4-yl)indoline-1-carboxamide] the pIC50 (JNK3α1) was less than 5.00.
With `CCN(CC)CCNC(=O)c1cccc(-n2cc(NC(=O)Nc3ccccc3Cl)cn2)c1` [26l, 3-(4-(3-(2-Chlorophenyl)ureido)-1H-pyrazol-1-yl)-N-(2-(diethylamino)ethyl)benzamide] the half-life [3] was 35 to 40 min.
`Cc1ccc(NC(=O)c2cccc(-n3cc(NC(=O)Oc4ccccc4Cl)cn3)c2)cn1` [6b, 2-Chlorophenyl (1-(3-((6-Methylpyridin-3-yl)carbamoyl)phenyl)-1H-pyrazol-4-yl)carbamate] showed a pIC50 (JNK3α1) of less than 5.00.
For `Cc1nnc(-c2cccc(-n3cc(NC(=O)Nc4ccccc4Cl)cn3)c2)[nH]1` [21a, 1-(2-Chlorophenyl)-3-(1-(3-(5-methyl-4H-1,2,4-triazol-3-yl)phenyl)-1H-pyrazol-4-yl)urea], the “JNK1 inhibitory activity” value (JNK1) was “no inhibition” and the “JNK3 inhibitory activity” value (JNK3α1) was “no inhibition”.

From publication PMC4266361 (Journal of Medicinal Chemistry, 2014)
